The values below come from US20240216369A1, “THE USE OF A SPLICING MODULATOR FOR A TREATMENT SLOWING PROGRESSION OF HUNTINGTON'S DISEASE” (Novartis AG, priority 2019, published 2024).

Each structure is given as a SMILES string. “Also recorded” adds a separate entry of the source.

The subject of test [1] is total HTT transcript. Kind of test: Repeat oral dosing in BacHD mice: total HTT transcript in blood. The test is classed as in vivo. The following applies: 12 or 24 mg/kg oral, thrice weekly for three weeks; listed as branaplam. The method, then:
For the repeat dosing study, twenty-four BacHD mice (FVB/N-Tg(HTT*97Q)IXwy/J transgenic mice—Jackson Laboratories) were used for the experiment. Animal protocols were approved by the Children's Hospital of Philadelphia Institutional Animal Care and use Committee. Mice were housed in a temperature-controlled environment on a 12-h light/dark cycle. Food and water were provided ad libitum.
For the repeat dosing study, branaplam or vehicle was administered by oral gavage 3 times a week for 3 consecutive weeks. Mice were divided in 4 groups (n=6 mice/group) and treated with branaplam (12 mg/kg—1 group, or 24 mg/kg—2 groups), or vehicle (1 groups) as control. […] The amount of branaplam or vehicle administrated to each mouse was based on the weight recorded the day of dosing. […]
RNA from blood was extracted using PAXgene blood RNA kit (Qiagen) according to manufacturer protocol. The RNA was quantified by Nanodrop 2000 (Thermo Scientific). cDNAs were synthesized from 140-400 ng RNA using Maxima First strand cDNA synthesis kit using a mix of oligo dT and random hexamers (Thermo Scientific) in 20 uL reaction at 25° C. for 10 min, 50° C. for 15 min then 85° C. for 5 min. Quantitative PCR was performed using Taqman Fast Advanced master mix (Thermo Scientific) in 20 uL with 4 uL of cDNA reaction and primers specific for each genes. […]

The subject of test [2] is endogenous mouse HTT transcript or protein. Kind of test: BacHD mice: effect on endogenous mouse HTT. The test is classed as in vivo. The method, then:
Total RNA from cerebrum and cerebellum was extracted using RNeasy Plus kit (Qiagen) after homogenized in Precellys at 6000 rpm for 40 sec. RNA from blood was extracted using PAXgene blood RNA kit (Qiagen) according to manufacturer protocol. The RNA was quantified by Nanodrop 2000 (Thermo Scientific). cDNAs were synthesized from 140-400 ng RNA using Maxima First strand cDNA synthesis kit using a mix of oligo dT and random hexamers (Thermo Scientific) in 20 uL reaction at 25° C. for 10 min, 50° C. for 15 min then 85° C. for 5 min. Quantitative PCR was performed using Taqman Fast Advanced master mix (Thermo Scientific) in 20 uL with 4 uL of cDNA reaction and primers specific for each genes. The PCR steps were as follows: 95° C. for 20 sec then 40 cycles of 95° C. for 1 sec, 55° C. for 20 sec. […] Relative quantification of gene expression was performed using 2^−ΔΔCT method. Fold changes in the mRNA expression level was calculated following normalization to mouse glucuronidase beta (Gusb) as an endogenous reference.
Snap-frozen mouse tissue samples were homogenized in RIPA buffer with protease and phosphatase inhibitor (Thermo Scientific) by Precellys at 6000 rpm for 40 sec. […] Total protein concentration was quantified using the BCA protein Assay (Thermo Scientific). […] Protein bands were quantified by Image J.

With `CC1(C)CC(Oc2ccc(-c3ccc(-c4cn[nH]c4)cc3O)nn2)CC(C)(C)N1` [Compound 18, 5-(1H-pyrazol-4-yl)-2-(6-((2,2,6,6-tetramethylpiperidin-4-yl)oxy)pyridazin-3-yl)phenol], the “total HTT transcript in blood” value in test [1] is recorded as “robust lowering; also recorded: lowers”. The “effect on endogenous mouse HTT transcript or protein” value in test [2] is listed as “no lowering effect”.
